Our source for the IC50 values is US20260226068A1, “IMIDAZOTRIAZINE IL-17A MODULATORS AND USES THEREOF” (DICE ALPHA, INC., priority 2023, published 2026).

The target in one assay is T1, IL-17A/A (Homo sapiens, UniProt Q16552).
T1 construct: purchased Genscript Z03228
T1 sequence (Q16552 24-155): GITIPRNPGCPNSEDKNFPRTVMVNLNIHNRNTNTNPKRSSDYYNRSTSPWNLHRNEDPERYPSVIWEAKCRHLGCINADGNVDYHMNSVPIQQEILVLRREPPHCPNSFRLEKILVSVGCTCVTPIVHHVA
The assay can be described thus: IL-17A/A HEK-Blue cell assay (SEAP reporter). The class given is cell-based. The conditions noted are these: HEK-Blue IL-17A reporter cells, IL17A/A 5 ng/mL, 20 hours, SEAP read at A630; read-out: HEK-Blue IL17AA (IC50 for IL-17A/A inhibition).

The next assay has as its target T2, IL-17A/F (Homo sapiens, UniProt Q16552+Q96PD4).
T2 construct: purchased R&D Systems
T2 sequence (Q16552 24-155): T1 sequence (Q16552 24-155)
T2 sequence (Q96PD4 31-163): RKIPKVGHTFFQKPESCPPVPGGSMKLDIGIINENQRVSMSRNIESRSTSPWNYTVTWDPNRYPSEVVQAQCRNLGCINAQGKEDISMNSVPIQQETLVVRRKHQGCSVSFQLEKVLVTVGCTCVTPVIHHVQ
The assay can be described thus: IL-17A/F HEK-Blue cell assay (SEAP reporter). Conditions: HEK-Blue IL-17A reporter cells, IL17A/F 5 ng/mL, 20 hours, SEAP read at A630; read-out: HEK-Blue IL17AF (IC50 for IL-17A/F inhibition). The class given is cell-based.

Structures are written as SMILES.

Consider `CCn1nccc1C(=O)N[C@H](c1cn2nc(C[C@H]3C[C@@H](C(F)(F)F)CNC3=O)c(N(C)C3COC3)nc2n1)C1CCC(F)(F)CC1` [Compound 180, N—((S)-(4,4-difluorocyclohexyl)(3-(methyl(oxetan-3-yl)amino)-2-(((3R,5R)-2-oxo-5-(trifluoromethyl)piperidin-3-yl)methyl)imidazo[1,2-b][1,2,4]triazin-6-yl)methyl)-1-ethyl-1H-pyrazole-5-carboxamide], for which the results for the IC50 on IL-17A/A and on IL-17A/F were 100 to 1000 nM and greater than 1000 nM, respectively.

Regarding `O=C(N[C@H](c1cn2nc(C[C@H]3C[C@@H](C(F)(F)F)CNC3=O)c(N3CCOCC3)nc2n1)C1CCC(F)(F)CC1)OCc1cc(C(F)(F)F)on1` [Compound 181, (5-(trifluoromethyl)isoxazol-3-yl)methyl ((S)-(4,4-difluorocyclohexyl)(3-morpholino-2-(((3R,5R)-2-oxo-5-(trifluoromethyl)piperidin-3-yl)methyl)imidazo[1,2-b][1,2,4]triazin-6-yl)methyl)carbamate], the values for the IC50 at IL-17A/A and at IL-17A/F were less than 100 nM and greater than 1000 nM, respectively.

In the case of `CCn1nccc1C(=O)N[C@H](c1cn2nc(C[C@H]3C[C@@H](C(F)(F)F)CNC3=O)c(C3CCC(F)(F)CC3)nc2n1)C1CCC(F)(F)CC1` [Compound 182, N-((1S)-(4,4-difluorocyclohexyl)(3-(4,4-difluorocyclohexyl)-2-(((3R,5R)-2-oxo-5-(trifluoromethyl)piperidin-3-yl)methyl)imidazo[1,2-b][1,2,4]triazin-6-yl)methyl)-1-ethyl-1H-pyrazole-5-carboxamide], the IC50 on IL-17A/A and on IL-17A/F was less than 100 nM throughout.

Consider `O=C(N[C@H](c1cn2nc(C[C@H]3C[C@@H](C(F)(F)F)CNC3=O)c(C3CCOCC3)nc2n1)C1CCC(F)(F)CC1)OCc1cc(C(F)(F)F)on1` [Compound 183, (5-(trifluoromethyl)isoxazol-3-yl)methyl ((1S)-(4,4-difluorocyclohexyl)(2-(((3R,5R)-2-oxo-5-(trifluoromethyl)piperidin-3-yl)methyl)-3-(tetrahydro-2H-pyran-4-yl)imidazo[1,2-b][1,2,4]triazin-6-yl)methyl)carbamate], for which the IC50 at IL-17A/A was less than 100 nM; at IL-17A/F, 100 to 1000 nM.

Regarding `O=C(N[C@H](c1cn2nc(C[C@H]3C[C@@H](C(F)(F)F)CNC3=O)c(C3CCOCC3)nc2n1)C1CCC(F)(F)CC1)c1ccnn1C(F)(F)F` [Compound 184, N-((1S)-(4,4-difluorocyclohexyl)(2-(((3R,5R)-2-oxo-5-(trifluoromethyl)piperidin-3-yl)methyl)-3-(tetrahydro-2H-pyran-4-yl)imidazo[1,2-b][1,2,4]triazin-6-yl)methyl)-1-(trifluoromethyl)-1H-pyrazole-5-carboxamide], the IC50 on IL-17A/A was less than 100 nM; on IL-17A/F it was greater than 1000 nM.

With `O=C(N[C@H](c1cn2nc(C[C@H]3C[C@@H](C(F)(F)F)CNC3=O)c(C3CCOCC3)nc2n1)C1CCC(F)(F)CC1)c1ccnn1C(F)F` [Compound 185, N-((1S)-(4,4-difluorocyclohexyl)(2-(((3R,5R)-2-oxo-5-(trifluoromethyl)piperidin-3-yl)methyl)-3-(tetrahydro-2H-pyran-4-yl)imidazo[1,2-b][1,2,4]triazin-6-yl)methyl)-1-(difluoromethyl)-1H-pyrazole-5-carboxamide], the IC50 on IL-17A/A was less than 100 nM; at IL-17A/F it was 100 to 1000 nM.

`O=C(N[C@H](c1cn2nc(C[C@H]3C[C@@H](C(F)(F)F)CNC3=O)c(C3CCOCC3)nc2n1)C1CCC(F)(F)CC1)c1ccnn1CC(F)(F)F` [Compound 186, N-((1S)-(4,4-difluorocyclohexyl)(2-(((3R,5R)-2-oxo-5-(trifluoromethyl)piperidin-3-yl)methyl)-3-(tetrahydro-2H-pyran-4-yl)imidazo[1,2-b][1,2,4]triazin-6-yl)methyl)-1-(2,2,2-trifluoroethyl)-1H-pyrazole-5-carboxamide]: the IC50 was less than 100 nM on IL-17A/A and 100 to 1000 nM on IL-17A/F.

As to `O=C(N[C@H](c1cn2nc(C[C@H]3C[C@@H](C(F)(F)F)CNC3=O)c(C3CCOCC3)nc2n1)C1CCC(F)(F)CC1)c1ccnn1CC(F)F` [Compound 187, N-((1S)-(4,4-difluorocyclohexyl)(2-(((3R,5R)-2-oxo-5-(trifluoromethyl)piperidin-3-yl)methyl)-3-(tetrahydro-2H-pyran-4-yl)imidazo[1,2-b][1,2,4]triazin-6-yl)methyl)-1-(2,2-difluoroethyl)-1H-pyrazole-5-carboxamide], the IC50 was less than 100 nM at IL-17A/A and 100 to 1000 nM at IL-17A/F.

In the case of `O=C(N[C@H](c1cn2nc(C[C@H]3C[C@@H](C(F)(F)F)CNC3=O)c(C3CCOCC3)nc2n1)C1CCC(F)(F)CC1)c1ccnn1CCF` [Compound 188, N-((1S)-(4,4-difluorocyclohexyl)(2-(((3R,5R)-2-oxo-5-(trifluoromethyl)piperidin-3-yl)methyl)-3-(tetrahydro-2H-pyran-4-yl)imidazo[1,2-b][1,2,4]triazin-6-yl)methyl)-1-(2-fluoroethyl)-1H-pyrazole-5-carboxamide], the results for the IC50 at IL-17A/A and on IL-17A/F were less than 100 nM and 100 to 1000 nM, respectively.

With `Cc1nocc1C(=O)N[C@H](c1cn2nc(C[C@H]3C[C@@H](C(F)(F)F)CNC3=O)c(C3CCOCC3)nc2n1)C1CCC(F)(F)CC1` [Compound 189, N-((1S)-(4,4-difluorocyclohexyl)(2-(((3R,5R)-2-oxo-5-(trifluoromethyl)piperidin-3-yl)methyl)-3-(tetrahydro-2H-pyran-4-yl)imidazo[1,2-b][1,2,4]triazin-6-yl)methyl)-3-methylisoxazole-4-carboxamide], the figures for the IC50 at IL-17A/A and at IL-17A/F were less than 100 nM and 100 to 1000 nM, respectively.

`O=C(N[C@H](c1cn2nc(C[C@H]3C[C@@H](C(F)(F)F)CNC3=O)c(C3CCOCC3)nc2n1)C1CCC(F)(F)CC1)c1nonc1C(F)F` [Compound 190, N-((1S)-(4,4-difluorocyclohexyl)(2-(((3R,5R)-2-oxo-5-(trifluoromethyl)piperidin-3-yl)methyl)-3-(tetrahydro-2H-pyran-4-yl)imidazo[1,2-b][1,2,4]triazin-6-yl)methyl)-4-(difluoromethyl)-1,2,5-oxadiazole-3-carboxamide]: the IC50 is less than 100 nM at IL-17A/A and greater than 1000 nM at IL-17A/F.

For `O=C(N[C@H](c1cn2nc(C[C@H]3C[C@@H](C(F)(F)F)CNC3=O)c(C3CCOCC3)nc2n1)C1CCC(F)(F)CC1)c1conc1C(F)(F)F` [Compound 191, N-((1S)-(4,4-difluorocyclohexyl)(2-(((3R,5R)-2-oxo-5-(trifluoromethyl)piperidin-3-yl)methyl)-3-(tetrahydro-2H-pyran-4-yl)imidazo[1,2-b][1,2,4]triazin-6-yl)methyl)-3-(trifluoromethyl)isoxazole-4-carboxamide], the IC50 on IL-17A/A is less than 100 nM; at IL-17A/F, 100 to 1000 nM.

As for `CCn1nccc1C(=O)N[C@H](c1cn2nc(C[C@H]3C[C@@H](C(F)(F)F)CNC3=O)c(N3CCC(F)(F)CC3)nc2n1)C1CCC(F)(F)CC1` [Compound 192, N—((S)-(4,4-difluorocyclohexyl)(3-(4,4-difluoropiperidin-1-yl)-2-(((3R,5R)-2-oxo-5-(trifluoromethyl)piperidin-3-yl)methyl)imidazo[1,2-b][1,2,4]triazin-6-yl)methyl)-1-ethyl-1H-pyrazole-5-carboxamide], the IC50 was less than 100 nM at IL-17A/A and 100 to 1000 nM on IL-17A/F.

With `CCn1nccc1C(=O)N[C@H](c1cn2nc(C[C@H]3C[C@@H](C(F)(F)F)CNC3=O)c(N3CC4(CCOC4)C3)nc2n1)C1CCC(F)(F)CC1` [Compound 193, N—((S)-(4,4-difluorocyclohexyl)(2-(((3R,5R)-2-oxo-5-(trifluoromethyl)piperidin-3-yl)methyl)-3-(6-oxa-2-azaspiro[3.4]octan-2-yl)imidazo[1,2-b][1,2,4]triazin-6-yl)methyl)-1-ethyl-1H-pyrazole-5-carboxamide], the IC50 was less than 100 nM at IL-17A/A and 100 to 1000 nM on IL-17A/F.

As for `CCn1nccc1C(=O)N[C@H](c1cn2nc(C[C@H]3C[C@@H](C(F)(F)F)CNC3=O)c(N3CCC(C)(O)CC3)nc2n1)C1CCC(F)(F)CC1` [Compound 194, N—((S)-(4,4-difluorocyclohexyl)(3-(4-hydroxy-4-methylpiperidin-1-yl)-2-(((3R,5R)-2-oxo-5-(trifluoromethyl)piperidin-3-yl)methyl)imidazo[1,2-b][1,2,4]triazin-6-yl)methyl)-1-ethyl-1H-pyrazole-5-carboxamide], the IC50 on IL-17A/A was less than 100 nM; on IL-17A/F it was 100 to 1000 nM.

With `CCn1nccc1C(=O)N[C@H](c1cn2nc(C[C@H]3C[C@@H](C(F)(F)F)CNC3=O)c(N(C)CC3(C)COC3)nc2n1)C1CCC(F)(F)CC1` [Compound 195, N—((S)-(4,4-difluorocyclohexyl)(3-(methyl((3-methyloxetan-3-yl)methyl)amino)-2-(((3R,5R)-2-oxo-5-(trifluoromethyl)piperidin-3-yl)methyl)imidazo[1,2-b][1,2,4]triazin-6-yl)methyl)-1-ethyl-1H-pyrazole-5-carboxamide], the IC50 at IL-17A/A is 100 to 1000 nM; on IL-17A/F, greater than 1000 nM.

Turning to `CCn1nccc1C(=O)N[C@H](c1cn2nc(C[C@H]3C[C@@H](C(F)(F)F)CNC3=O)c(C3CCOCC3)nc2n1)C1CCCCC1` [Compound 196, N-((1S)-cyclohexyl(2-(((3R,5R)-2-oxo-5-(trifluoromethyl)piperidin-3-yl)methyl)-3-(tetrahydro-2H-pyran-4-yl)imidazo[1,2-b][1,2,4]triazin-6-yl)methyl)-1-ethyl-1H-pyrazole-5-carboxamide], the IC50 at IL-17A/A and at IL-17A/F was less than 100 nM in each case.
